# According to US20190307749A1, “Mitochondria-Division Inhibitor 1 Protects Against Amyloid-B Induced Mitochondrial Fragmentation and Synaptic Damage in Alzheimer's Disease” (Texas Tech University System, priority 2018, published 2019):
# Entries after “also recorded” stand apart in the source; their conditions may differ.
# Columns and labels:
# N2a cells [1] = experiment: Lipid peroxidation assay (4-hydroxy-2-nonenol, HNE-His ELISA); assay type: cell-based, mouse
# Description: (§1) Tissue culture: The N2a cells were grown for 3 days in a serum-free medium (1:1 mixture of DMEM and OptiMEM, plus penicillin and streptomycin [Invitrogen, Carlsbad, Calif., USA]) until the cells developed neuronal processes.
# Lipid peroxidation assay: Lipid peroxidates are unstable indicators of oxidative stress in the brain. The final product of lipid peroxidation is 4-hydroxy-2-nonenol (HNE), which was measured in the N2a cell lysates prepared from cell pellets of control and treatment groups. The inventors used an HNE-His ELISA kit (Cell BioLabs, Inc., San Diego, Calif., USA), as described in Manczak and Reddy. Briefly, freshly prepared protein as added to a 96-well protein binding plate and incubated overnight at 4° C. The protein then washed 3 times with a buffer. After the last wash, the anti-HNE-His antibody was added to the protein in the wells, incubated for 2 hours at room temperature, and then washed again 3 times. The samples were then incubated with a secondary antibody conjugated with peroxidase for 2 hours at room temperature, followed by incubation with an enzyme substrate. Optical density was measured (at 450 nm) to quantify the level of HNE.
# [2] = test system: mouse neuroblastoma (N2a) cells; experiment: Immunoblotting analysis of mitochondrial dynamics, biogenesis and synaptic proteins; assay type: cell-based
# Description: as §1
# […] of protein was resolved from each group of cells on a 4-12% Nu-PAGE gel (Invitrogen). The resolved proteins were transferred to […] (Novax Inc., San Diego, Calif., USA) and were then incubated for 1 hour at room temperature with a blocking buffer (5% dry milk dissolved in a TBST buffer). The PVDF membranes were incubated overnight with primary antibodies (see Table 2) and washed 3 times with a TBST buffer at 10-minute intervals. They were then incubated for 2 hours with appropriate secondary antibodies, followed by 3 additional washes at 10-minute intervals. Mitochondrial and synaptic proteins were detected with cheminilumniscence reagents (Pierce Biotechnology, Rockford, Ill., USA), and the bands from immunoblots were quantified on a Kodak scanner, following manufacturer's instructions (ID Image Analysis Software, Kodak Digital Science, Kennesaw, Ga., USA), and the gel images were analyzed from gel images captured with a Kodak digital science CD camera. The lanes were marked to define the positions and specific regions of the bands. An ID fine-band command was used to locate and to scan the bands in each lane and to record the readings.
# GTPase Drp1 = details: by blocking the self-assembly of Drp1; reference [34]; cited from earlier work
# N2a cells [3] = experiment: Soluble Aβ42 levels by sandwich ELISA; assay type: cell-based, mouse; details: vs N2a cells treated only with Aβ42
# Description: as §1
# Briefly, protein lysates from untreated control N2a cells and lysates from 4 treatment groups were homogenized in a Tris-buffered saline (pH 8.0) containing protease inhibitors ([…] pepstatin A, aprotinin, phophsoramidon, and leupeptin; 0.5 mM phenylmethanesulfonyl fluoride and 1 mM ethyleneglycol-bis(flaminoethyl ether)-NN tetraacetic acid). Samples were sonicated briefly and centrifuged at 10,000 g for 20 min at 4° C. The soluble fraction was used to determine the soluble Aβ by ELISA. For each sample, Aβ1-40 and Aβ1-42 were measured with commercial colorimetric ELISA kits (Biosource International, Camarillo, Calif., USA) that were specific for each species. A 96-well plate reader was used, following the manufacturer's instructions. Each sample was run in duplicate. Protein concentrations of the homogenates were determined following the […], and Aβ was expressed as pg Aβ/mg protein.
# N2a cells [4] = experiment: Cell viability (MTT assay); assay type: cell-based, mouse
# Description: as §1
# The N2a cells from all 5 groups (4 treatment groups and 1 control group) were harvested, and their cell pellets were collected and used for quantitative real-time RT-PCR, immunoblotting analysis of mitochondrial and synaptic proteins, and mitochondrial functional assays for hydrogen peroxide production, lipid peroxidation, cytochrome c oxidase activity, and MTT determination. Isolated mitochondria from N2a cells from all 5 groups were used to determine mitochondrial ATP as described in Reddy et al..
# [5] = test system: mouse neuroblastoma (N2a) cells; experiment: Quantitative real-time RT-PCR: mRNA expression of mitochondrial dynamics, biogenesis and synaptic genes; assay type: cell-based; details: vs Aβ42 treated cells
# N2a cell mitochondria = experiment: Mitochondrial ATP levels (luciferase bioluminescence); assay type: cell-based, mouse; details: N2a cells
# Description: as §1
# ATP levels: ATP levels were measured in N2a cell mitochondria from the treatment groups using an ATP determination kit (Molecular Probes). A bioluminescence assay was used, based on the reaction of ATP with recombinant firefly luciferase and its substract luciferin. Luciferase catalyzes the formation of light from ATP and luciferin. It is the emitted light that is linearly related to the concentration of ATP, which is measured with a luminometer. ATP levels were measured from mitochondrial pellets using a standard curve method.
# [6] = Mdivi1 24 hrs or Aβ42 20 μM 6 hrs alone, vs untreated N2a cells
# [7] = Aβ42 6 hrs then Mdivi1 24 hrs (Aβ42+Mdivi1), vs Aβ42 treated cells
# [8] = Aβ42 6 hrs then Mdivi1 24 hrs (Aβ42+Mdivi1), vs untreated N2a cells
# [9] = Mdivi1 24 hrs then Aβ42 6 hrs (Mdivi1+Aβ42), vs Aβ42 treated cells
# [10] = Mdivi1 24 hrs then Aβ42 6 hrs (Mdivi1+Aβ42), vs untreated N2a cells
# [11] = Aβ42 6 hrs then Mdivi1 24 hrs (Aβ42+Mdivi1)
compound,measurement,setting,value
"COc1cc(-n2c(S)nc3ccccc3c2=O)c(Cl)cc1Cl [Mdivi1, 3-(2,4-Dichloro-5-methoxyphenyl)-2,3-dihydro-2-thioxo-4(1H)-quinazolinone]",Lipid peroxidation levels (4-hydroxy-2-nonenol),"N2a cells [1]; Aβ42 6 hrs then Mdivi1 24 hrs (Aβ42+Mdivi1), vs N2a cells treated only with Aβ42",Significantly lower
same,Lipid peroxidation levels (4-hydroxy-2-nonenol),N2a cells [1]; [6],significantly lower
same,Lipid peroxidation levels (4-hydroxy-2-nonenol),"N2a cells [1]; Mdivi1 24 hrs then Aβ42 6 hrs (Mdivi1+Aβ42), vs N2a cells treated only with Aβ42",Significantly lower
same,Drp1 protein level,[2]; [7],significantly lower
same,Fis1 protein level,[2]; [7],significantly lower
same,Mfn1 protein level,[2]; [7],significantly higher
same,Mfn2 protein level,[2]; [7],significantly higher
same,Nrf1 protein level,[2]; [7],significantly higher
same,Opa1 protein level,[2]; [7],significantly higher
same,PGC1α protein level,[2]; [7],significantly higher
same,PSD95 protein level,[2]; [7],significantly higher
same,Synaptophysin protein level,[2]; [7],significantly higher
same,TFAM protein level,[2]; [7],significantly higher
same,Drp1 protein level,[2]; [8],Unchanged
same,Fis1 protein level,[2]; [8],Unchanged
same,Drp1 protein level,[2]; [6],significantly lower
same,Fis1 protein level,[2]; [6],significantly lower
same,Mfn1 protein level,[2]; [6],significantly higher
same,Mfn2 protein level,[2]; [6],significantly higher
same,Nrf2 protein level,[2]; [6],significantly higher
same,Opa1 protein level,[2]; [6],significantly higher
same,PGC1α protein level,[2]; [6],significantly higher
same,TFAM protein level,[2]; [6],significantly higher
same,Drp1 protein level,[2]; [9],significantly lower
same,Fis1 protein level,[2]; [9],significantly lower
same,Mfn1 protein level,[2]; [9],significantly higher
same,Mfn2 protein level,[2]; [9],significantly higher
same,Nrf1 protein level,[2]; [9],significantly higher
same,Nrf2 protein level,[2]; [9],significantly higher
same,Opa1 protein level,[2]; [9],significantly higher
same,PGC1α protein level,[2]; [9],significantly higher
same,PSD95 protein level,[2]; [9],significantly higher
same,Synaptophysin protein level,[2]; [9],significantly higher
same,TFAM protein level,[2]; [9],significantly higher
same,Drp1 protein level,[2]; [10],unchanged
same,Fis1 protein level,[2]; [10],unchanged
same,GTPase Drp1 activity,GTPase Drp1,inhibits
same,Aβ42 levels,"N2a cells [3]; Aβ42 6 hrs then Mdivi1 24 hrs (Aβ42+Mdivi1, curative)",Significantly reduced; also recorded: significantly lower
same,Aβ42 levels,"N2a cells [3]; Mdivi1 24 hrs then Aβ42 6 hrs (Mdivi1+Aβ42, preventive)",Significantly reduced; also recorded: significantly lower
same,Cell viability,"N2a cells [4]; Aβ42 6 hrs then Mdivi1 24 hrs (Aβ42+Mdivi1), vs N2a+Aβ42",higher
same,Cell viability,N2a cells [4]; [6],significantly higher
same,Cell viability,"N2a cells [4]; Mdivi1 24 hrs then Aβ42 6 hrs (Mdivi1+Aβ42), vs N2a+Aβ42",higher
same,Nrf2 mRNA fold change,[5]; [11],2.0 fold
same,PSD95 mRNA fold change,[5]; [11],8.6 fold
same,TFAM mRNA fold change,[5]; [11],2.9 fold
same,Mfn1 mRNA fold change,[5]; Mdivi1 24 hrs then Aβ42 6 hrs (Mdivi1+Aβ42),2.6 fold
same,Mitochondrial ATP levels,"N2a cell mitochondria; Aβ42 6 hrs then Mdivi1 24 hrs (Aβ42+Mdivi1), vs Aβ42-treated N2a cells (FIG. 7B)",Significantly higher
same,Mitochondrial ATP levels,N2a cell mitochondria; [6],Significantly increased
same,Mitochondrial ATP levels,"N2a cell mitochondria; Mdivi1 24 hrs then Aβ42 6 hrs (Mdivi1+Aβ42), vs Aβ42-treated N2a cells (FIG. 7B)",Significantly higher
